Data: patent US20250041272A1, “COMPOSITIONS AND METHODS FOR TREATING CANCER VIA PTP1B INHIBITION” (priority 2021, published 2025)

Tests used:
[1] = test system: MyD88 protein in macrophages; test: Immunofluorescent staining of M1 macrophages cultured in B16F10 conditioned medium; type: cell-based, mouse; settings: 24 hours
Experimental: Immunofluorescence staining and quantitation. After treatments, mouse macrophages were fixed with 4% formaldehyde (Electron Microscopy Sciences) and permeabilized with acetone (Fisher scientific). Samples were blocked using BlockAid blocking solution (Thermofisher scientific), were incubated with primary antibodies to MyD88 (Cell signaling), CD86 (Biolegend) and total STAT1 (Cell signaling) and Alexa Fluor 488-labeled secondary antibody (LifeTech) and were mounted with SlowFade Gold Antifade Mountant with DAPI (Invitrogen). Images were taken with using a BZ-X810 all-in-one fluorescence microscope (Keyence). Fluorescence intensity was measured with BZ-X800 software while colocalization was analyzed using ImageJ software with JACoP plugin (NIH)

[2] = test system: macrophage M1 associated gene expression; test: Cisplatin treated transwell co-culture of macrophages and B16F10 cells, qRT-PCR; type: cell-based, mouse
Experimental: Peritoneal macrophage isolation and culture. Peritoneal macrophages were done as described previously(65) from 8-week-old C57BL/6J mice (randomized, both male and female). PBS (Gibco) was injected in the mural peritoneal cavity to release the macrophages. After recovering, cells were centrifuged at 1200 rpm for 5 minutes, resuspended in DMEM high glucose, 10% FBS, 1% penicillin-streptomycin (Gibco) and plated. 2 hours after the last step, cells were washed with PBS and maintained in DMEM/F12 supplemented with 10% FBS, 1% penicillin-streptomycin and 20 ng/ml of M-CSF (Prospec) for 2 days. Macrophages were treated for 24 hours with 50 ng/ml LPS (Sigma Millipore), 100 ng/ml IFNγ (BioLegend), 300 ng/ml PAM3CSK4 (InvivoGen), 107 cells/ml heat killed Listeria Monocytogenes (HKLM) (InvivoGen), 100 ng/ml Flagellin Salmonella typhimurium standard (InvivoGen), 10 ng/ml FSL1 (InvivoGen), 2.5 ug/ml ssRNA40 (InvivoGen), 2.5 ug/ml CL 075 (Tocris), 5 μM ODN1826, 50 μM Fludarabine (SelleckChem), 50 nM Momelotinib (SelleckChem), 5 μM BVT948 (Sigma Millipore), 200 μM PTP1b inhibitor III (Santa Cruz Biotechnology Inc.), 5 μM NSC87877 (Santa Cruz Biotechnology Inc.), 50 μM PTP1b inhibitor (Cayman), 1 mM PTP Inhibitor IV (Santa Cruz Biotechnology Inc.), 1 μM TSC401, 300 nM UNC2371 (SelleckChem), 300 nM BMS777607 (SelleckChem), 300 nM LDC1267 (SelleckChem) 1.5 μg/ml recombinant Pros1 (R&D systems), 200 ng/ml recombinant Gas6 (R&D systems) or 10-500 μM Cisplatin (Tocris). All components were added as described in the text. Cell culture. B16F10 (CRL-6475, ATCC), Lewis lung carcinoma (LLC) (CRL-1642, ATCC), KPC2713 (Yuliya Pylayeva-Gupta laboratory, UNC) and MDA-MB-231 (HTB-26, ATCC) were cultured in DMEM high glucose supplemented with 10% FBS, 1% penicillin-streptomycin (Gibco). GEMM6 (Dr. Alisha Holtzhausen, UNC), KPPC4662 (Dr. Yuliya Pylayeva-Gupta laboratory, UNC), KPPC4548 (Yuliya Pylayeva-Gupta laboratory, UNC) and E0771 (CRL-3461, ATCC) were maintained in RPMI 1640 supplemented with […], 1% penicillin/streptomycin (Gibco) while PyMT cells were cultured in Ham's F-12K with 10% FBS, 1% penicillin-streptomycin (Gibco). Transwell assays were performed in 0.4 μm polyester membrane insert culture plates (Corning). 500,000 cells of each line were plated per well in DMEM/F12 supplemented with 10% FBS, 1% penicillin-streptomycin and 20 ng/ml of M-CSF for culture with mouse macrophages. SC cells (CRL-9855, ATCC) were cultured in IMDM with 10% FBS and 1% penicillin-streptomycin (Gibco). In transwell experiments with the SC cell line, cancer cells were also resuspended in IMDM media.
(§1) qRT-PCR. RNA was isolated using the RNeasy Plus Mini Kit (Quiagen) and cDNA was prepared using the Reverse Transcription System (Promega) with one-hour reverse transcription process. qRT-PCR was done using the PowerUp™ SYBR™ Green Master Mix (Applied Biosystems) on a QuantStudio Pro Real-time PCR system (Applied Biosystems) with a 95° C. pretreatment of 10 min, 50 cycles of 95° C., 10 sec and 60° C., 1 min and melt curve at the end. Analysis was performed with the 2^−ΔΔCT method(136).

[3] = test system: macrophage pro-inflammatory gene expression; test: DAMP characterization assay: nutrient deprived tumor cell conditioned medium on macrophages; type: cell-based, mouse; settings: BVT948 5 μM, 24 hours
Experimental: DAMP characterization assay. B16F10 or GEMM6 cells were resuspended in DMEM deficient media with 1% penicillin-streptomycin (Gibco) and incubated for 3 days. Conditioned media was collected, filtered with a 0.2 μm filter and incubated with 0.35 U/ml proteinase K-agarose beads (Sigma Millipore) or 40 U/ml of benzonase endonuclease (Sigma Millipore) for 4 hours at 37° C. under rotation. Conditioned media was two-fold diluted with DMEM/F12 with 10% FBS, 1% penicillin-streptomycin (Gibco) and 20 ng/ml of M-CSF (Prospec), supplemented with 5 μM BVT948 (Sigma Millipore) and added to primary mural macrophages for 24 hours.
as §1

LLC tumors = test: Subcutaneous LLC tumor model; type: in vivo, mouse
Experimental: Tumor implantation, treatment and harvest. For animal studies, 1*10^5 B16F10 luciferase-tagged melanoma cells, 1*10^6 GEMM6 melanoma cells or 2*10^6 LCC cells were implanted subcutaneously into C57BL/6J mice (randomized, both males and females, 000664 The Jackson laboratory). When indicated, mice received intraperitoneal injections 7 days after implantation with 100 μl of 5 mg/kg cisplatin (Tocris), 100 μl of 10 mg/kg BVT948 (Tocris) or 100 μl of 30 mg/kg of vemurafenib. 5 mice were used per experimental group and tumors were harvested when they reached 1.5 cm in any direction.
Immunohistochemistry analysis. Immunohistochemistry assay was carried out in formalin-fixed, paraffin-embedded 4 μm sections using primary antibodies against F4:80 (AbD Serotec), CD11b (Abcam), CD4 (eBioscience) or CD8a (eBioscience) on a Discovery Ultra Automated IHC staining system (Ventana). Sections were then imaged using a ScanScope XT microscope (Aperio) and quantified using Aperio software.

## BVT948
[1]
  MyD88 protein level and localization: increased MyD88
[2]; BVT948 with Cisplatin 50 μM to 500 μM, wildtype macrophages with B16F10 cells
  macrophage pro-inflammatory gene expression, PTP1b inhibition in combination with Cisplatin: able to restore macrophage pro-inflammatory gene expression, in a dose dependent manner
[2]; increasing Cisplatin, with or without BVT948
  M1 gene expression in MyD88 knockout macrophages: Neither increasing concentrations of Cisplatin, nor PTP1 b inhibition, were able to restore M1 gene expression
[3]; B16F10 nutrient deprivation conditioned medium
  DAMP mediated macrophage activation (pro-inflammatory gene expression): able to restore DAMP mediated macrophage activation
[3]; GEMM6 nutrient deprivation conditioned medium
  pro-inflammatory gene expression: rescued pro-inflammatory gene expression
LLC tumors; BVT948 10 mg/kg or Cisplatin 5 mg/kg intraperitoneal, treatment from 50 mm^3
  LLC tumor growth reduction, monotherapy: 30%
LLC tumors; BVT948 in combination with Cisplatin
  decrease in LLC tumor growth, combination: roughly 50%
LLC tumors; BVT948 monotherapy, LLC tumors
  tumor viability (H&E staining): not significantly changed
